Source: patent US9833497B2, “Human originated EGF domain proteins and use of the same” (CHENGDU SOURCEBIO LIMITED-LIABILITY COMPANY, priority 2013, dated 2017)

Columns and labels:
Type in all cases: cell-based
[1] = system: Klebsiella pneumonia; assay: MIC against Gram-negative bacteria: Klebsiella pneumonia
Outline: (§1)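 Bacteria grown in LB at 37° C to McFarland 0.5, resuspended and seeded at 5×10^5 CFU/mL in 96-well plates. Purified human EGF-domain proteins two-fold serially diluted, triplicate wells; cultured at 37° C, shaking 175 rpm. MIC = lowest protein concentration with no growth.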

[2] = system: Proteus mirabilis; assay: MIC against Gram-negative bacteria: Proteus mirabilis
Outline: as §1

[3] = system: Aeromonas hydrophila; assay: MIC against Gram-negative bacteria: Aeromonas hydrophila
Outline: as §1

[4] = system: Citrobacter diversus; assay: MIC against Gram-negative bacteria: Citrobacter diversus
Outline: as §1

[5] = system: Pseudomonas aeruginosa; assay: MIC against Gram-negative bacteria: Pseudomonas aeruginosa
Outline: as §1

[6] = system: Moraxella catarrhalis; assay: MIC against Gram-negative bacteria: Moraxella catarrhalis
Outline: as §1

[7] = system: E. coli DH5α; assay: Antibacterial activity: MIC and growth curve against E. coli DH5α in 96-well plate; conditions: minimal inhibitory concentration against E. coli DH5α; 96-well plate, 5×10^5 CFU/mL, 37° C., judged after 8 h
Outline: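 Log-phase bacteria (OD600 ~0.5) resuspended in LB at 5×10^5 CFU/mL, exposed to recombinant protein at 50, 25, 12.5 μg/mL final in triplicate, 37 °C shaking at 175 rpm. OD600 read every 30 min; MIC is lowest concentration showing no growth.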

[8] = system: Enterobacter cloacae; assay: MIC against Gram-negative bacteria: Enterobacter cloacae
Outline: as §1

[9] = system: Serratia marcescens; assay: MIC against Gram-negative bacteria: Serratia marcescens
Outline: as §1

[10] = system: Proteus vulgaris; assay: MIC against Gram-negative bacteria: Proteus vulgaris
Outline: as §1

[11] = system: E. coli BL21; assay: MIC against Gram-negative bacteria: E. coli BL21
Outline: as §1

[12] = K. pneumonia, 10 h cultivation at 37° C., 5×10^5 CFU/mL
[13] = P. mirabilis, 10 h cultivation at 37° C., 5×10^5 CFU/mL
[14] = A. hydrophila, 10 h cultivation at 37° C., 5×10^5 CFU/mL
[15] = C. diversus, 10 h cultivation at 37° C., 5×10^5 CFU/mL
[16] = P. aeruginosa, 10 h cultivation at 37° C., 5×10^5 CFU/mL
[17] = M. catarrhalis, 10 h cultivation at 37° C., 5×10^5 CFU/mL
[18] = E. cloacae, 10 h cultivation at 37° C., 5×10^5 CFU/mL
[19] = S. marcescens, 10 h cultivation at 37° C., 5×10^5 CFU/mL
[20] = P. vulgaris, 10 h cultivation at 37° C., 5×10^5 CFU/mL
[21] = E. coli BL21, 10 h cultivation at 37° C., 5×10^5 CFU/mL
[22] = 10 h cultivation at 37° C., 5×10^5 CFU/mL, two-fold serial dilution
[23] = 96-well plate, 5×10^5 CFU/mL, 37° C., 10 h

Substance: PRT809 (NESCTCANGAACSPIDGSCSCTPGWLGDTCE; listed as Homo sapiens)
- MIC (μg/mL) K. pneumonia [1, 12]: 25 µg/mL
- MIC (μg/mL) P. mirabilis [2, 13]: 25 µg/mL
- MIC (μg/mL) A. hydrophila [3, 14]: 12.5 µg/mL
- MIC (μg/mL) C. diversus [4, 15]: 25 µg/mL
- MIC (μg/mL) P. aeruginosa [5, 16]: 25 µg/mL
- MIC (μg/mL) M. catarrhalis [6, 17]: 50 µg/mL
- MIC [7]: 25 µg/mL
- MIC (μg/mL) E. cloacae [8, 18]: 50 µg/mL
- MIC (μg/mL) S. marcescens [9, 19]: 25 µg/mL
- MIC (μg/mL) P. vulgaris [10, 20]: 12.5 µg/mL
- MIC (μg/mL) E. coli BL21 [11, 21]: 12.5 µg/mL

Substance: PRT1094 (GDNSCKSNPCHNGGVCHSRWDDFSCSCPALTSGKACE; listed as Homo sapiens)
- MIC K. pneumonia [1, 22]: 12.5 µg/mL
- MIC P. mirabilis [2, 22]: 12.5 µg/mL
- MIC A. hydrophila [3, 22]: 50 µg/mL
- MIC C. diversus [4, 22]: 12.5 µg/mL
- MIC P. aeruginosa [5, 22]: 25 µg/mL
- MIC M. catarrhalis [6, 22]: 50 µg/mL
- MIC [7]: 25 µg/mL
- MIC E. cloacae [8, 22]: 25 µg/mL
- MIC S. marcescens [9, 22]: 12.5 µg/mL
- MIC P. vulgaris [10, 22]: 50 µg/mL
- MIC E. coli BL21 [11, 22]: 50 µg/mL

Substance: PRT1229 (DINECETGLAKCKYKAYCRNKVGGYICSCLVKYTLFNFLAGIIDYDHPDCY; listed as Homo sapiens)
- MIC against K. pneumonia ([1]; Klebsiella pneumonia, 96-well plate, 5×10^5 CFU/mL, 37° C., 10 h): 12.5 µg/mL
- MIC against P. mirabilis ([2]; Proteus mirabilis, 96-well plate, 5×10^5 CFU/mL, 37° C., 10 h): 12.5 µg/mL
- MIC against A. hydrophila ([3]; Aeromonas hydrophila, 96-well plate, 5×10^5 CFU/mL, 37° C., 10 h): 12.5 µg/mL
- MIC against C. diversus ([4]; Citrobacter diversus, 96-well plate, 5×10^5 CFU/mL, 37° C., 10 h): 12.5 µg/mL
- MIC against P. aeruginosa ([5]; Pseudomonas aeruginosa, 96-well plate, 5×10^5 CFU/mL, 37° C., 10 h): 12.5 µg/mL
- MIC against M. catarrhalis ([6]; Moraxella catarrhalis, 96-well plate, 5×10^5 CFU/mL, 37° C., 10 h): 12.5 µg/mL
- MIC [7]: 25 µg/mL
- MIC against E. cloacae ([8]; Enterobacter cloacae, 96-well plate, 5×10^5 CFU/mL, 37° C., 10 h): 25 µg/mL
- MIC against S. marcescens ([9]; Serratia marcescens, 96-well plate, 5×10^5 CFU/mL, 37° C., 10 h): 12.5 µg/mL
- MIC against P. vulgaris ([10]; Proteus vulgaris, 96-well plate, 5×10^5 CFU/mL, 37° C., 10 h): 12.5 µg/mL
- MIC against E. coli BL21 ([11]; E. coli BL21, 96-well plate, 5×10^5 CFU/mL, 37° C., 10 h): 12.5 µg/mL

Substance: PRT1115 (PTLPCEANPCLNGGTCRAAGGVSECICNARFSGQFCE; listed as Homo sapiens)
- MIC K. pneumonia [1, 22]: 50 µg/mL
- MIC P. mirabilis [2, 22]: 12.5 µg/mL
- MIC A. hydrophila [3, 22]: 12.5 µg/mL
- MIC C. diversus [4, 22]: 12.5 µg/mL
- MIC P. aeruginosa [5, 22]: 12.5 µg/mL
- MIC M. catarrhalis [6, 22]: 12.5 µg/mL
- MIC [7]: 50 µg/mL
- MIC E. cloacae [8, 22]: 12.5 µg/mL
- MIC S. marcescens [9, 22]: 12.5 µg/mL
- MIC P. vulgaris [10, 22]: 12.5 µg/mL
- MIC E. coli BL21 [11, 22]: 25 µg/mL

Substance: PRT629 (CPCPGQSACTTIPESREVVCTHCPPGQRGRRCEVCDDGFFGDPLGLFGHPQPCHQ; listed as Homo sapiens)
- MIC K. pneumonia [1, 23]: 25 µg/mL
- MIC P. mirabilis [2, 23]: 12.5 µg/mL
- MIC A. hydrophila [3, 23]: 12.5 µg/mL
- MIC C. diversus [4, 23]: 12.5 µg/mL
- MIC P. aeruginosa [5, 23]: 12.5 µg/mL
- MIC M. catarrhalis [6, 23]: 12.5 µg/mL
- MIC [7]: 12.5 µg/mL
- MIC E. cloacae [8, 23]: 12.5 µg/mL
- MIC S. marcescens [9, 23]: 12.5 µg/mL
- MIC P. vulgaris [10, 23]: 50 µg/mL
- MIC E. coli BL21 [11, 23]: 25 µg/mL

Substance: PRT216 (DIDECTAGTHNCRADQVCINLRGSFACQCPPGYQKRGEQCV; listed as Homo sapiens)
- MIC (μg/mL) K. pneumonia [1, 12]: 50 µg/mL
- MIC (μg/mL) P. mirabilis [2, 13]: 25 µg/mL
- MIC (μg/mL) A. hydrophila [3, 14]: 50 µg/mL
- MIC (μg/mL) C. diversus [4, 15]: 12.5 µg/mL
- MIC (μg/mL) P. aeruginosa [5, 16]: 12.5 µg/mL
- MIC (μg/mL) M. catarrhalis [6, 17]: 50 µg/mL
- MIC [7]: 12.5 µg/mL
- MIC (μg/mL) E. cloacae [8, 18]: 12.5 µg/mL
- MIC (μg/mL) S. marcescens [9, 19]: 25 µg/mL
- MIC (μg/mL) P. vulgaris [10, 20]: 12.5 µg/mL
- MIC (μg/mL) E. coli BL21 [11, 21]: 12.5 µg/mL

Substance: PRT916 (QADPCASNPCANGGQCLPFEASYICHCPPSFHGPTCR; listed as Homo sapiens)
- MIC ([1]; K. pneumonia, 10 h cultivation at 37° C.): 25 µg/mL
- MIC ([2]; P. mirabilis, 10 h cultivation at 37° C.): 25 µg/mL
- MIC ([3]; A. hydrophila, 10 h cultivation at 37° C.): 50 µg/mL
- MIC ([4]; C. diversus, 10 h cultivation at 37° C.): 25 µg/mL
- MIC ([5]; P. aeruginosa, 10 h cultivation at 37° C.): 50 µg/mL
- MIC ([6]; M. catarrhalis, 10 h cultivation at 37° C.): 12.5 µg/mL
- MIC [7]: 25 µg/mL
- MIC ([8]; E. cloacae, 10 h cultivation at 37° C.): 12.5 µg/mL
- MIC ([9]; S. marcescens, 10 h cultivation at 37° C.): 12.5 µg/mL
- MIC ([10]; P. vulgaris, 10 h cultivation at 37° C.): 50 µg/mL
- MIC ([11]; E. coli BL21, 10 h cultivation at 37° C.): 12.5 µg/mL
